Laboratory results reported in BindingDB's records for doi:10.1021/cb500956g (University of North Carolina At Chapel Hill, 2015).

Assays:
Experiment in all cases: AlphaScreen Assay
Details in all cases: pH 8
[1] = molecular target: T1, Chromobox protein homolog 7 (Homo sapiens, UniProt O95931)
T1 sequence (O95931 whole entry): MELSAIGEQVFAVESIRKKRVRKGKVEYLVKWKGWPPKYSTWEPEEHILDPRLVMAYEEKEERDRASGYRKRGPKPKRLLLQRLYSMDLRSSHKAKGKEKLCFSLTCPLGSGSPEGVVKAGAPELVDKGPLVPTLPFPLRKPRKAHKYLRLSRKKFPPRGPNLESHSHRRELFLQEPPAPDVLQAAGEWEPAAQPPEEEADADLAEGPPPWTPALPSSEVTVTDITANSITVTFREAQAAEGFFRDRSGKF
Method: (§1) In brief, compound plates (1 μL at 10 mM highest concentration; 3-fold, 10-point dilutions in DMSO) were diluted in 1X assay buffer (20 mM TRIS pH 8.0, 25 mM NaCl, 2 mM DTT and 0.05% Tween-20) to 1 mM using a Multimek robotic pipettor (Nanoscreen), and 1 μL was spotted into the wells of 384-well low-volume Proxiplates (PerkinElmer). To these plates was added 9 μL of protein−peptide mix in a 1X assay buffer by Multidrop (Thermo) to bring the final compound concentration to 100 μM, and this was incubated for 30 min at RT. Next, 2 μL of a 1:1 mixture of streptavidin-conjugate donor and nickel-chelate acceptor beads (45μg/mL in 1X assay buffer) were added, and the plates were allowed to incubate for an additional 30 min in the dark at RT. After incubation, the plates were read on an EnVision multilabel reader equipped with an HTS AlphaScreen laser (PerkinElmer).

[2] = molecular target: T2, E3 ubiquitin-protein ligase UHRF1 (Homo sapiens, UniProt Q96T88)
T2 sequence (Q96T88 whole entry): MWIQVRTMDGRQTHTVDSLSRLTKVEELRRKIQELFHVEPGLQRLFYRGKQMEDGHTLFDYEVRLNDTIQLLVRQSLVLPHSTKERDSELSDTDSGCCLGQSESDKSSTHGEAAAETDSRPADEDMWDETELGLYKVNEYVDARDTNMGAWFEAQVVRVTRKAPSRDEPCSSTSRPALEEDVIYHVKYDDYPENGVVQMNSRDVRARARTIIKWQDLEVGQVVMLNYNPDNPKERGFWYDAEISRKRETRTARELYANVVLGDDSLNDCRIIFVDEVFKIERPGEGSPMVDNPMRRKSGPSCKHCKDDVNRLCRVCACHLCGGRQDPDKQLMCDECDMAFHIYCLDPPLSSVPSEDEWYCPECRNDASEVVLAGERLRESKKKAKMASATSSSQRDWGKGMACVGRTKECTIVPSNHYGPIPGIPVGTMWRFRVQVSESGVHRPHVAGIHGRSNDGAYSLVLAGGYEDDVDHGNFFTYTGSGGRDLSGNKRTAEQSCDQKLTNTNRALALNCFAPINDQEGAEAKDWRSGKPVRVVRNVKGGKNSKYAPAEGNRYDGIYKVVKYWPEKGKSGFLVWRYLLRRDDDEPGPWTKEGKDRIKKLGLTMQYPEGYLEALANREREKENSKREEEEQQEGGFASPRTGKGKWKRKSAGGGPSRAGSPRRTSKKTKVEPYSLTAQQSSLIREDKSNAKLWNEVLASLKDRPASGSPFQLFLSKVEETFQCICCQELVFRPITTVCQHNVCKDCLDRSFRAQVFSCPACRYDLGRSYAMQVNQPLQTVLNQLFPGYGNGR
Method: as §1

[3] = molecular target: T3, Isoform 4 of Lethal(3)malignant brain tumor-like protein 1 (4) (Homo sapiens, UniProt Q9Y468)
T3 sequence (Q9Y468 whole entry): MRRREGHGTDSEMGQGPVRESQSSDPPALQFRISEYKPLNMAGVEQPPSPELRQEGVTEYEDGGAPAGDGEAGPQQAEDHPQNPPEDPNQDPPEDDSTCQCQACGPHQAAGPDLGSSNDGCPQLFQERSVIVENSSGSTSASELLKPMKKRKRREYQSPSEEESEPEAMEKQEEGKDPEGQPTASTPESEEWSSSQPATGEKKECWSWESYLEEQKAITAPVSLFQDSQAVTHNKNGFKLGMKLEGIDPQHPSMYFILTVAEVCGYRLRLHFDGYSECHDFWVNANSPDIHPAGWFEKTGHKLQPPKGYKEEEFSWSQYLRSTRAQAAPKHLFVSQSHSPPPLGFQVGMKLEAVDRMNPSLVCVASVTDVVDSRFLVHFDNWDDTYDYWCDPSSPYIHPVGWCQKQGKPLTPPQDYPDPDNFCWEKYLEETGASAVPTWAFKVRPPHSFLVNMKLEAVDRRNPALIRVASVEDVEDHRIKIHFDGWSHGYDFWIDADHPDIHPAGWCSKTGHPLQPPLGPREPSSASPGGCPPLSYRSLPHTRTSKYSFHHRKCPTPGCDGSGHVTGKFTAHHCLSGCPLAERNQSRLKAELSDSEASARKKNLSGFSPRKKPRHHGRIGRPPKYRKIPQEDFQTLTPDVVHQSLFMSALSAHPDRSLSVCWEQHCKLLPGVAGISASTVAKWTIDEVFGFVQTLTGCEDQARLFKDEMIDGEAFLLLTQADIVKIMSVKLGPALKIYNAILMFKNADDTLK
Method: as §1

[4] = molecular target: Lysine-specific demethylase 5A (Homo sapiens, UniProt P29375)
Method: as §1

[5] = molecular target: MBT domain-containing protein 1 (Homo sapiens, UniProt Q05BQ5)
Method: as §1

PHD finger protein 1 = molecular target: T4, PHD finger protein 1 (Homo sapiens, UniProt O43189)
T4 sequence (O43189 whole entry): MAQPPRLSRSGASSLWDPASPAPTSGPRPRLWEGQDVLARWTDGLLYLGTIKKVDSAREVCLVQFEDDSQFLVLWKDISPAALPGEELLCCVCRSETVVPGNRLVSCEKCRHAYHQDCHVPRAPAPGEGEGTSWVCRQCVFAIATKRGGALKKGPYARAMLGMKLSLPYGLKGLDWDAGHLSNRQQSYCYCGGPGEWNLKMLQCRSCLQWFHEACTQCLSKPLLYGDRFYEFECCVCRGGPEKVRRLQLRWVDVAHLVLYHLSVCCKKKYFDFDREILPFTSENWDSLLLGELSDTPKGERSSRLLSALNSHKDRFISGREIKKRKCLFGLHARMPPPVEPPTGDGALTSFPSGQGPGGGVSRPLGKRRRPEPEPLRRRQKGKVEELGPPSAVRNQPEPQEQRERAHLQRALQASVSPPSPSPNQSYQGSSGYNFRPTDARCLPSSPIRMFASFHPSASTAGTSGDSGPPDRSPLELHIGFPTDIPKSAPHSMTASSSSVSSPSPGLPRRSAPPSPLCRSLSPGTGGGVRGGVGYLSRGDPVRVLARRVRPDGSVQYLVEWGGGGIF
Method: as §1

PHD finger protein 23 = PHD finger protein 23 (Homo sapiens, UniProt Q9BUL5)
Method: as §1

TP53-binding protein 1 = TP53-binding protein 1 (Homo sapiens, UniProt Q12888)
Method: as §1

Measured: IC50

Sequence of Lysine-specific demethylase 5A (P29375 whole entry): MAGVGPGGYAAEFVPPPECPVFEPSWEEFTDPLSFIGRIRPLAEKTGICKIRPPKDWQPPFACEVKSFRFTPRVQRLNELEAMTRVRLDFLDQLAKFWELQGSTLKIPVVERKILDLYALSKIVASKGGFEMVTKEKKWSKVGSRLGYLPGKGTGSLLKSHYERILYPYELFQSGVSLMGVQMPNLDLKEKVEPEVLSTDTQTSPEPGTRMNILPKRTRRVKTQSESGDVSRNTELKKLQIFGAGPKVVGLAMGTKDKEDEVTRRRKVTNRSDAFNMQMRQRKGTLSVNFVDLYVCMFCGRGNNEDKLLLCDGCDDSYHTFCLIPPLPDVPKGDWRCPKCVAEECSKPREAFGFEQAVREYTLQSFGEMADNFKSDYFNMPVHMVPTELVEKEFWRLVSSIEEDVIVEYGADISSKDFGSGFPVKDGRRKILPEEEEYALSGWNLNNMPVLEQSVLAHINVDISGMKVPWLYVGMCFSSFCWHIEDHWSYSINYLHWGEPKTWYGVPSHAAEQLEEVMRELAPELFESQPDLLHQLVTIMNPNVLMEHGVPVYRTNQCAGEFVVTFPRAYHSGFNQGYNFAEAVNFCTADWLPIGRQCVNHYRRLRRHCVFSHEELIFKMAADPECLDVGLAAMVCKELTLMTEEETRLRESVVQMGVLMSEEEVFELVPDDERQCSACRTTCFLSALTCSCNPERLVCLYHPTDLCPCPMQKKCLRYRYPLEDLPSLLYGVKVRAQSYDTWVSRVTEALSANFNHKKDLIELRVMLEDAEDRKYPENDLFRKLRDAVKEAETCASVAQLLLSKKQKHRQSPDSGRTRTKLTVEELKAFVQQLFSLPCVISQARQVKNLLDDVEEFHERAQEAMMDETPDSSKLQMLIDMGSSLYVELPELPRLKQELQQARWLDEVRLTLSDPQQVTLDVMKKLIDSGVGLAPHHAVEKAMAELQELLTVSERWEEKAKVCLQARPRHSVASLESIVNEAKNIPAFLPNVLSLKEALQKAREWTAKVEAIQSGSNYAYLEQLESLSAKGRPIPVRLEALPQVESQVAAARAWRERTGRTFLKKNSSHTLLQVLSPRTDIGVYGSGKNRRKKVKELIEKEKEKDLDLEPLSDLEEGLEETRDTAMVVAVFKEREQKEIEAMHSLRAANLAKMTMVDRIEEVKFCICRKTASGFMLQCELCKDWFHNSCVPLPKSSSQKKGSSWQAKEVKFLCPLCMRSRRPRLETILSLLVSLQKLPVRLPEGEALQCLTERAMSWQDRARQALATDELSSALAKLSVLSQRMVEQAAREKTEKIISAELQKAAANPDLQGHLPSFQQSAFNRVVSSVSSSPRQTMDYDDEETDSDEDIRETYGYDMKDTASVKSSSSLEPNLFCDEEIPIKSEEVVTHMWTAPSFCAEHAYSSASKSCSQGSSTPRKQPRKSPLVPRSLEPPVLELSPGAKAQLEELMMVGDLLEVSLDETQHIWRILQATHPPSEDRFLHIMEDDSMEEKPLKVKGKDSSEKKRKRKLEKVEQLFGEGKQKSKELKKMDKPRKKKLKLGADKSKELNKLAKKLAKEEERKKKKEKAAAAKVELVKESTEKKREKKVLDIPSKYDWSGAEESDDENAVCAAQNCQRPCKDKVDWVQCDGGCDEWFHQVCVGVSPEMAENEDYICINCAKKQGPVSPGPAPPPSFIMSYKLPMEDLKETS
Sequence of TP53-binding protein 1 (Q12888 whole entry): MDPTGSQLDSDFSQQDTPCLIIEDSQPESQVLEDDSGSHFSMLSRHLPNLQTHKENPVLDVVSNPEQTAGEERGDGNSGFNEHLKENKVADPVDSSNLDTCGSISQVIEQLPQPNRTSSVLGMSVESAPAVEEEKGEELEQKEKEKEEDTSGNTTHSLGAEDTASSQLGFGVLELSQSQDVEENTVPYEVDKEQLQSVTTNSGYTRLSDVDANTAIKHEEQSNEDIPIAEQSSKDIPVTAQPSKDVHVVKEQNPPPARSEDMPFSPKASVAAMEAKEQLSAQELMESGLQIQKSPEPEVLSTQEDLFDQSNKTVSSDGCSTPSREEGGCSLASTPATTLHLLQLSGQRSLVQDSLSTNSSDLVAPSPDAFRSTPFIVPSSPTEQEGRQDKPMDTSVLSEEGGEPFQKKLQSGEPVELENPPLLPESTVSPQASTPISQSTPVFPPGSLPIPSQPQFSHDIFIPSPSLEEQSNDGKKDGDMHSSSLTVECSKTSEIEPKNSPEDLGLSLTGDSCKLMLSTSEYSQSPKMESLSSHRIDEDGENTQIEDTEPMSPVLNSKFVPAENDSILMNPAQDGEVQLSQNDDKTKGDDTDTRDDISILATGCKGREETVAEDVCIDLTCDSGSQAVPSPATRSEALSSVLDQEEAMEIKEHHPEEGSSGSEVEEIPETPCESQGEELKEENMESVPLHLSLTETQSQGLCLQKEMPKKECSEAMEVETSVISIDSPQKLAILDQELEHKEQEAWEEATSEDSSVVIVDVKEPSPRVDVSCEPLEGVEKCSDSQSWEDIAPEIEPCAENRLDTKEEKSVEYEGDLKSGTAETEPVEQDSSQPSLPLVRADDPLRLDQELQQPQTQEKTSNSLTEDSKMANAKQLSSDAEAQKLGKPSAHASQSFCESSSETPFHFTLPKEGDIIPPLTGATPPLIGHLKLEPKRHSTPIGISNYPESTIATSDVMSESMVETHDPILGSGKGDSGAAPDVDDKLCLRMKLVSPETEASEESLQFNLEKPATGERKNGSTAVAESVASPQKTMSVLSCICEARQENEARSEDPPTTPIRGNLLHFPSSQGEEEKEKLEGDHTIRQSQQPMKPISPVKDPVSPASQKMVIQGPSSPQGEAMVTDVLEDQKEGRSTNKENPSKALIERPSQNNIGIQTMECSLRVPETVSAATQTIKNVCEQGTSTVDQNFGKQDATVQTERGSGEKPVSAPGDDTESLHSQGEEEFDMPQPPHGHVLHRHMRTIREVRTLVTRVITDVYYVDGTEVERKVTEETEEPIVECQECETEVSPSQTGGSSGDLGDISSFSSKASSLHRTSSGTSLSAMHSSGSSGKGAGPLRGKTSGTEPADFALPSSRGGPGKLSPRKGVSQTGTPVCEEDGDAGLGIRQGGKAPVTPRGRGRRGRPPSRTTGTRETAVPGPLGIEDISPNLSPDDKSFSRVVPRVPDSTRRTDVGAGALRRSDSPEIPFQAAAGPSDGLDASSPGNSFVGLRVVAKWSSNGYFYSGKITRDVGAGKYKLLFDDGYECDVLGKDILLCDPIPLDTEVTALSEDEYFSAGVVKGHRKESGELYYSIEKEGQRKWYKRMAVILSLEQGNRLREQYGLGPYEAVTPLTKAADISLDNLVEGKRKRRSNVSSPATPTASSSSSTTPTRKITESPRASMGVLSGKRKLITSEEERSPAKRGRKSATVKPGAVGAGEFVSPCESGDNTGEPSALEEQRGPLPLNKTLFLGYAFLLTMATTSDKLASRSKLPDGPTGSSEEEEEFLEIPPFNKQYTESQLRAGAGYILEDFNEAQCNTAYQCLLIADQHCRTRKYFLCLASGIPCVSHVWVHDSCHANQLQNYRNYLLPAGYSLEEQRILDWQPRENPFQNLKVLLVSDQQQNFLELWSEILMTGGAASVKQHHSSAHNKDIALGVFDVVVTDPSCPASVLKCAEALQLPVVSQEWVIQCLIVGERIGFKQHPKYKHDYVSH
Sequence of PHD finger protein 23 (Q9BUL5 whole entry): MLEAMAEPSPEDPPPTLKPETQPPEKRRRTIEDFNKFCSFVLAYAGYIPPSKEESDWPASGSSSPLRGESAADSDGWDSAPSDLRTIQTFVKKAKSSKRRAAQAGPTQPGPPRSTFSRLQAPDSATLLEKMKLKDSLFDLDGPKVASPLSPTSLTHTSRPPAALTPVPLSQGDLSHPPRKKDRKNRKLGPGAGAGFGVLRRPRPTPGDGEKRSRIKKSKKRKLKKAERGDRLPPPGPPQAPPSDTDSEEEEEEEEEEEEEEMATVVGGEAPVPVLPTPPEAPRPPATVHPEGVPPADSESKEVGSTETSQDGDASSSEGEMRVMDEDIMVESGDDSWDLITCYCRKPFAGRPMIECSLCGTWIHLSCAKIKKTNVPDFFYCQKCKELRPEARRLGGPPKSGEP
Sequence of MBT domain-containing protein 1 (Q05BQ5 whole entry, the tested form may be a part): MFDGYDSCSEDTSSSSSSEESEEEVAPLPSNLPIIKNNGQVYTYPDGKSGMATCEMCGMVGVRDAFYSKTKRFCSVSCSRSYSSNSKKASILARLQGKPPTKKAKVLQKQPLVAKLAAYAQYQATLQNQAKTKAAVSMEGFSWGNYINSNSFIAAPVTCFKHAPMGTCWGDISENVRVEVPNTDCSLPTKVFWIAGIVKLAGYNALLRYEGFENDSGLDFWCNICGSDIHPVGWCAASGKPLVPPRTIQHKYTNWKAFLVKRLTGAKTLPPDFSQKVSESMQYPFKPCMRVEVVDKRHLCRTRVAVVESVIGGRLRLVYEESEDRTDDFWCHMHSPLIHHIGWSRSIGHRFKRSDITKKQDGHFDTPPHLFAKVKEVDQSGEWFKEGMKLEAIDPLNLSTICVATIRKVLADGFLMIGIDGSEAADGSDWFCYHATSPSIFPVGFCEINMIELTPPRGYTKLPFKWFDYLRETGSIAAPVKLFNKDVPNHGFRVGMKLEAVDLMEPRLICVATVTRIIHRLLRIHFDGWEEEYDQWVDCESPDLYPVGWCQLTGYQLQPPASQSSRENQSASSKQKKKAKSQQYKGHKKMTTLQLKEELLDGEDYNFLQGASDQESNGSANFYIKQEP

CC(C)(C)NCCCNC(=O)c1ccccc1Br [2-Bromo-N-(3-(tert-butylamino)propyl)benzamide (16)]
> 100 µM: all assays above

CC(C)(C)NCCCCNC(=O)c1cccc(Br)c1 [3-Bromo-N-(4-(tert-butylamino)butyl)benzamide (11)]
> 100 µM: all assays above

CC(C)(C)NCCCCCNC(=O)c1cccc(Br)c1 [3-Bromo-N-(5-(tert-butylamino)pentyl)benzamide (12)]
> 100 µM: all assays above

CC(C)(C)NCCCNC(=O)c1ccc(Br)cc1 [4-Bromo-N-(3-(tert-butylamino)propyl)benzamide (15)]
> 100 µM: all assays above

CC(C)(C)NCCCNC(=O)c1cc(Br)ccn1 [4-Bromo-N-(3-(tert-butylamino)propyl)picolinamide (24)]
> 100 µM: all assays above

CC(C)(C)N1CCN(C(=O)c2cccc(Br)c2)CC1 [(3-Bromophenyl)(4-(tert-butyl)piperazin-1-yl)methanone (10)]
> 100 µM: all assays above

CC(C)(C)NCCCNC(=O)c1cc(C(F)(F)F)ccn1 [N-(3-(Tert-butylamino)propyl)-4-(trifluoromethyl)picolinamide (25)]
> 100 µM: all assays above
